Test results as given in patent US12636378B2, “Targeted antigen delivery system and uses thereof” (SRI International, priority 2020, dated 2026).
“Also recorded” adds a separate entry of the source. Where two headings read alike, the source gives them in different places. No end group written: not given here.

What was measured:
[1] = Physicochemical properties of peptides (hydrophobicity, solubility, stability)
[2] = HLA A*02:01 patients; cited from earlier work
[3] = system: NSCLC lines; experiment: Flow cytometry binding to NSCLC lines; type: cell-based, human
From the text: (§1) The final optimized SRI_MGS5_V1 peptide, SRI_MGS5_V2, has the following characteristics.

[4] = system: normal control human lung epithelial cell line (HBEC); experiment: Binding to normal lung epithelial cells; type: cell-based
From the text: as §1

[5] = system: breast cancer lines (MCF-7, MDA-MB-231and 4T1); experiment: Binding to breast cancer lines; type: cell-based
From the text: as §1

[6] = system: 4T1 cells; experiment: Quantitative flow cytometry binding and internalization in 4T1 cells; type: cell-based, mouse
[7] = system: pancreatic cancer line (Pan02); experiment: Flow cytometry binding and internalization in Pan02 cells; type: cell-based, mouse
From the text: as §1

[8] = system: glioma cell line (GL-261); experiment: Flow cytometry binding and internalization in GL261 cells; type: cell-based, mouse
From the text: as §1

[9] = system: panel of cancer cell lines; experiment: Binding in a panel of cancer cell lines; type: cell-based
[10] = system: three human NSCLC cell lines; experiment: Quantitative flow cytometry uptake assay, NSCLC cell lines; type: cell-based
Protocol: Uptake is represented as an average number of peptides per cell. Error bars are smaller than the symbol for some points.
(§2) A quantitative flow cytometry assay was performed that measures the average number of molecules of peptide internalized per cell. […] The number of molecules internalized ranges from 1×10^5 molecules/cell for H358 cells to 8×10^5 for H1993 cells, corresponding to intracellular concentrations of 100-800 nM. The rate of uptake at 6 hours is not saturated and it appears that peptide continues to enter the cell past this time (FIG. 5 and FIG. 6). This indicates either high receptor numbers which have not yet saturated or rapid recycling of the receptor that allows for continual delivery, reaching high intracellular concentrations of the peptide.

[11] = system: H358 cells; experiment: Quantitative flow cytometry uptake assay, H358; type: cell-based, human
Protocol: H358 cell line data has been not included in FIG. 6 for clarity due to differences in the Y axis.
as §2

[12] = system: H1993 cells; experiment: Quantitative flow cytometry uptake assay, H1993; type: cell-based, human
Protocol: as §2

[13] = system: H1993 NSCLC cells; experiment: Confocal microscopy, co-localization of peptide with autophagic vesicles; type: cell-based, human; conditions: 100 nM
Protocol: FIGS. 7A-7C show an example of co-localization of SRI_MGS5_V2 peptides with autophagic vesicles (A) H1993 cells treated with 100 nM of SRI_MGS5_V1 peptide (panel A) and optimized SRI_MGS_V2 (panels B and C) conjugated with Alexa Fluor 647 (Red). Autophagosomes are stained with LC3B antibody (Green). The regions corresponding to co-localization of the peptide and autophagic vesicles are shown in yellow.
(§3) Therefore, accumulation in autophagosomes is a necessary component for success of this immunotherapy.

[14] = system: LLC1 cells; experiment: Confocal microscopy, autophagic vesicles in LLC1 cells; type: cell-based, mouse
From the text: as §3

[15] = system: subcutaneous H1993 NSCLC tumor; experiment: NIR imaging of dye-labeled peptides in mice with subcutaneous H1993 tumor; type: in vivo; conditions: for tumor accumulation / tumor targeting: Alexa Fluor 750 conjugate, tail vein injection
Protocol: The peptides were conjugated to Alexa Fluor 750 dye and […] injected intravenously via the tail vein into mice bearing a subcutaneous H1993 NSCLC tumor on their right flank.
SRI_MGS5_V2 and parental SRI_MGS5_V1 were labeled with the near-infrared dye Alexa Fluor 750 for imaging. […] For example, SRI_MGS5_V2 has 3-fold lower signal in the lung compared to SRI_MGS5_V1. […] Importantly, the corresponding nonacetylated versions of each peptide were evaluated as well.

[16] = system: LLC1 tumors; conditions: 15 μg I.V., Alexa Fluor 750 conjugate, 72 hours
Protocol: The LLC1 tumors were grown until palpable (≈500 mm^3) at which point mice were treated I.V. with 15 μg of SRI_MGS5_V2 conjugated to Alexa Fluor 750. Images were taken daily for 72 hours, after which the animal was sacrificed, and its organs were assessed to determine localization of the targeting peptide.

[17] = system: H1993 cells; experiment: Co-culture assay, liposome treated H1993 cells with HLA-A2 positive PBMCs, cytokine ELISA; type: cell-based, human
Protocol: TALL treated H1993 cells were co-cultured with HLA-A2 positive PBMCs and culture supernatants were analyzed for TNF-α secretion. Concentration of all liposomes used in this assay corresponded to ≈4.5 mg/ml of phosphatidyl choline. Free H250 peptide control is incubated at 5 μmol/L.
TALL treated H1993 cells were co-cultured with HLA-A2 positive PBMCs and culture supernatants were analyzed for IFNγ secretion. Concentration of all liposomes used in this assay corresponded to ≈4.5 mg/ml of phosphatidyl choline. Free H250 peptide control is incubated at 5 μmol/L.
(§4) The liposomes were loaded with the H250 antigenic peptide and SRI_MGS5_V2 or SRI_MGS5_V1 was conjugated to the external face of the liposome via maleimide chemistry. The liposomes were incubated with H1993 cells followed by co-culture with peripheral blood mononuclear cells (PBMCs) from an anonymous donor that is haplotype HLA A2+ and vaccinated against measles. […] More experiments testing different liposome variants and assessing TNF-α and INF-γ in co-culture were performed. […] The same experiments were completed using mouse LLC1 cells as the antigen presenting cells and lymph node lymphocytes (LNL) from C57B1/6 mice that had been vaccinated against HA.

[18] = system: LLC1 cells; experiment: Co-culture assay, liposome treated LLC1 cells, cytokine ELISA; type: cell-based, murine
Protocol: TALL treated LLC1 cells were co-cultured with HLA-A2 positive PBMCs and culture supernatants were analyzed for TNF-α a secretion. […] Concentration of all liposomes used in this assay corresponded to ≈4.5 mg/ml of phosphatidyl choline. Free H250 peptide control is incubated at 5 μmol/L.
TALL treated LLC1 cells were co-cultured with HLA-A2 positive PBMCs and culture supernatants were analyzed for IFN-γ secretion. […] Concentration of all liposomes used in this assay corresponded to ≈4.5 mg/ml of phosphatidyl choline. Free H250 peptide control is incubated at 5 μmol/L.
as §4

[19] = system: Multiple Different Cancer Types; experiment: Functional presentation of antigenic peptide in multiple cancer types; type: cell-based
From the text: Treatment groups: A—MGS5_V2 Targeted Liposome Loaded with H250 Antigen; B—Positive Control: Cells Pulsed with Free H250 Antigen; C—No MGS on Liposome Loaded with H250 Antigen; D—Blank Liposomes—no H250 Antigen.

[20] = system: H1993 cells
[21] = system: 4T1 cells implanted in mammary fat pads; conditions: nIR dye-labelled peptide
[22] = system: Pan02 cells; conditions: fluorescent dye-labelled peptide
[23] = system: GL261 cells implanted in the brain; conditions: fluorescent dye-labelled peptide
[24] = system: normal control human lung epithelial cell line (HBEC); conditions: cited from earlier work
[25] = system: cancer cells; conditions: cited from earlier work

## SLWGSLLML [C166, SLWGSLLML]
[1]
  biophysical properties: hydrophobic, difficult to purify, and unstable

## ILPGQDLQYV [H516]
[2]
  immunogenic response: highly immunogenic

## (CH3CO-LQWRRNFGVWARYRL-PEG11)2K-X (not fully specified; N-acetyl, PEG11, dimerized on lysine core, tag X; targeting sequence) [SRI_MGS5_V2]
[3]
  binding to NSCLC lines compared to parental SRI_MGS5_V1: greater binding affinity; also recorded: increased binding
[4]
  discrimination between NSCLC cancer and normal cells in the lung: high discriminating power
[5]
  binding to breast cancer lines: shown to bind; also recorded: binds
[6]
  binding and internalization in 4T1 cells: concentration dependent binding and internalization
[7]
  binding (and internalization) in Pan02 cells: shown to bind; also recorded: binds
[7]; listed as MGS5_V2
  binding (and internalization) in Pan02 cells: concentration dependent binding and internalization
[8]
  binding (and internalization) in GL261 cells: shown to bind; also recorded: binds
[8]; listed as MGS5_V2
  binding (and internalization) in GL261 cells: concentration dependent binding and internalization
[9]
  binding in a panel of cancer cell lines: improved binding
[10]; 4° C.
  uptake at low temperature: greatly reduced
[10]; at 6 hours, 100 nM dye-labeled peptide
  rate of uptake: not saturated
[10]; corresponding to molecules/cell from H358 to H1993
  intracellular concentrations: 100 to 800 nM
[10]; three human NSCLC cell lines
  internalization: is internalized
[11]
  number of molecules internalized: 1×10^5 molecules/cell
[12]
  number of molecules internalized: 8×10^5 molecules/cell
[13]
  accumulation in autophagic vesicles compared to parental MGS5_V1: much greater extent
[14]
  accumulation in autophagic vesicles: Comparable results
[15]
  tumor accumulation / tumor targeting: accumulate specifically
[15]; ex vivo imaging at 72 H
  non-specific accumulation in the lung and other organs vs acetylated SRI_MGS5_V1: reduced non-specific accumulation
[15]; ex vivo, 72 H
  less signal in the kidneys compared to SRI_MGS5_V1: 2.2 fold
[15]; mouse, in vivo
  extent of tumor uptake, V1 versus V2: roughly the same degree
  less signal in the liver compared to SRI_MGS5_V1: 1.6 fold
  lower signal in the lung compared to SRI_MGS5_V1: 3 fold
  time to localization at the tumor site: ≤ 24 h
  tumor signal maintained: 72 h
[16]; listed as SRI_MGS2_V2
  localization in LLC1 tumor: successfully localized
[16]; listed as SRI_MGS5_V5
  localization in LLC1 tumor: homes to LLC1 tumors
[17]
  presentation of encapsulated immunogenic peptide in HLA class I molecules (IFNγ ELISA): facilitates presentation
  presentation of encapsulated immunogenic peptide in HLA class I molecules (TNF-α ELISA): facilitates presentation
[18]
  presentation of encapsulated immunogenic peptide in HLA class I molecules (IFN-γ ELISA): facilitates presentation
  presentation of encapsulated immunogenic peptide in HLA class I molecules (TNF-α ELISA): facilitates presentation
[19]
  functional presentation of antigenic peptide: Mediates Functional Presentation
[20]; 72 hours, concentrations as high as 250 μM
  cell viability: No significant loss of viability
[20]; H1993 cells
  toxicity of uptake: not toxic
[21]
  tumor localization, orthotopic 4T1: homes to tumors
[21]; listed as MGS5_V2
  tumor localization, orthotopic 4T1: localized within the tumors
[22]
  tumor localization, orthotopic Pan02: homes to tumors
[22]; listed as MGS5_V2
  tumor localization, orthotopic Pan02: localized in the tumor
[23]
  tumor localization, orthotopic GL261: homes to tumors
[23]; listed as MGS5_V2
  tumor localization, orthotopic GL261: targets GL261 cells

## SMYRVFEVGV [H250, measles virus hemagglutinin peptide, HLA class I (A*02:01) restricted]
[2]
  immunogenic response: strong CD8 specific IFNγ response; also recorded: strong CD8 specific IFNy response

## SLSAYIIRV [H3L, SLSAYIIRV]
[1]
  biophysical properties: hydrophobic, difficult to purify, and unstable

## SRI_MGS5_V1: parental tumor-targeting peptide, dimer comprising LQWRRDDNVHNFGVWARYRL (SEQ ID NO:2) (also: dimer) [reference compound]
[15]; 24 H
  off-tumor signal in vivo: significant signal along the dorsal side
[15]
  tumor accumulation / tumor targeting: accumulate specifically
[15]; mouse, in vivo
  extent of tumor uptake, V1 versus V2: roughly the same degree
  time to localization at the tumor site: ≤ 24 h
  tumor signal maintained: 72 h
[24]
  binding to normal human bronchial epithelial cells: limited binding
[25]
  accumulation in cancer cells: selectively accumulate
